Results as given in patent publication US12227520B2 (priority 2019, dated 2025).
Like-named read-outs stand apart in the source and are kept apart here.

Experiments:
HIV-1 (IIIB) = test: Antiviral assay in MT-4 cells (HIV MT-4 antiviral assay); type: cell-based; conditions: HIV-1 (IIIB) in MT-4 cells, 5 days incubation, read-out: EC50
Method in brief: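 Read-out is CellTiter-Glo chemiluminescence after 5-day culture at 37° C, giving protection of MT-4 cells from HIV-1 IIIB cytopathicity. Compounds tested in 1:3 dilution series in complete RPMI; controls were no drug, mock infection and 5 μM AZT.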

uninfected MT-4 cells = test: Cytotoxicity assay in MT-4 cells; type: cell-based, human; conditions: uninfected MT-4 cells, 5 days incubation
Method in brief: (§1)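 For cytotoxicity, uninfected MT-4 cells were incubated with compounds 5 days at 37 °C, with 10 μM puromycin marking base cytotoxicity. Parallel plates used HIV-1 IIIB-infected (1:250 stock dilution) or mock cells with 5 μM AZT and no-drug controls. Read-out: CellTiter-Glo chemiluminescence.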

[1] = Cytotoxicity assay in MT-4 cells; type: cell-based, human; conditions: human, uninfected MT-4 cells, 5 days incubation; read-out: CC50
Method in brief: as §1

pLai RLuc reporter virus = test: microbe, parasite or virus in culture; type: cell-based, HIV; conditions: Human immunodeficiency virus 1, 72 h
Method in brief: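 Read-out is Renilla luciferase after 72 h at 37 °C in MT-4 cells infected 2 h beforehand with pLai RLuc reporter virus; compounds diluted 1:3.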

[2] = Human immunodeficiency virus 1, IIIB, MT4, 120 h
[3] = read-out: Antiviral Serum Shift RLuc 50% HS, HS/CCM (RPMI media, 10% FBS, 50% HS, 1% P/S), 72-h incubation
[4] = read-out: Antiviral Serum Shift RLuc CCM, CCM (RPMI media, 10% FBS, 1% P/S), 72-h incubation

Row | SMILES | EC50 (HIV-1 (IIIB)) | CC50 (uninfected MT-4 cells) | EC50 (HIV-1 (IIIB); [2]) | CC50 at 5 days [1] | EC50 (pLai RLuc reporter virus; [3]) | EC50 (pLai RLuc reporter virus; [4])
1 | O=C(NCc1c(F)cc(F)cc1F)c1cn2c(c(O)c1=O)C(=O)N1CC2CCc2ccccc21 (single isomer, unassigned) [Example 38-2] | 0.93 nM | 12800 nM | – | – | – | –
2 | CC[C@@]12CCCCN(C1)C(=O)c1c(O)c(=O)c(C(=O)NCc3ccc(F)cc3F)cn12 [Example 134-2, (7R)—N-(2,4-difluorobenzyl)-7-ethyl-12-hydroxy-1,11-dioxo-1,4,5,6,7,11-hexahydro-3H-27-methanopyrido[1,2-a][1,4]diazonine-10-carboxamide] | 5.7 nM | 10600 nM | – | – | – | –
3 | C[C@H]1CC(F)(F)C[C@H]2CN1C(=O)c1c(O)c(=O)c(C(=O)NCc3c(F)cc(F)cc3F)cn12 [Example 113, (3S,7S)-5,5-difluoro-12-hydroxy-3-methyl-1,11-dioxo-N-(2,4,6-trifluorobenzyl)-1,4,5,6,7,11-hexahydro-3H-2,7-methanopyrido[1,2-a][1,4]diazonine-10-carboxamide] | – | – | 1.42 nM | 16900 nM | 0.62 nM | 0.514 nM
4 | O=C(NCc1c(F)cc(F)cc1F)c1cn2c(c(O)c1=O)C(=O)N1C[C@H]2CCc2cccc(F)c21 [Example 46-2, (12R)-4-fluoro-7-hydroxy-6,8-dioxo-N-(2,4,6-trifluorobenzyl)-6,8,13,14-tetrahydro-12H-5,12-methanobenzo[e]pyrido[1,2-a][1,4]diazonine-9-carboxamide] | – | – | 1.41 nM | 12500 nM | 2.91 nM | 0.204 nM
5 | O=C(NCc1ccc(F)cc1F)c1cn2c(c(O)c1=O)C(=O)N1CC=CC[C@H]2C1 [Example 47-2, (7S)—N-(2,4-difluorobenzyl)-12-hydroxy-1,11-dioxo-1,6,7,11-tetrahydro-3H-2,7-methanopyrido[1,2-a][1,4]diazonine-10-carboxamide] | – | – | 1.16 nM | 8720 nM | 1.01 nM | 0.247 nM
6 | O=C(NCc1c(F)cc(F)cc1F)c1cn2c(c(O)c1=O)C(=O)N1C[C@@H]2C[S+]([O-])c2ccccc21 (stereo partly drawn) [Example 95, (6R)-1-hydroxy-2,14-dioxo-N-(2,4,6-trifluorobenzyl)-2,6,7,14-tetrahydro-6,13-methanobenzo[b]pyrido[2,1-f][1,4,7]thiadiazonine-3-carboxamide 8-oxide] | – | – | 31.5 nM | > 50000 nM | 4.84 nM | 5.18 nM
7 | C[C@@H]1CC[C@H]2CN(C1)C(=O)c1c(O)c(=O)c(C(=O)NCc3c(F)cc(F)cc3F)cn12 [Example 137-2, (4R,7S)-12-hydroxy-4-methyl-1,11-dioxo-N-(2,4,6-trifluorobenzyl)-1,4,5,6,7,11-hexahydro-3H-2,7-methanopyrido[1,2-a][1,4]diazonine-10-carboxamide] | – | – | 2.02 nM | 20700 nM | 0.821 nM | 0.182 nM
8 | O=C(NCc1c(F)cc(F)cc1F)c1cn2c(c(O)c1=O)C(=O)N1C[C@@H]2CCC(F)(F)C1 [Example 3-2, (7S)-4,4-difluoro-12-hydroxy-1,11-dioxo-N-(2,4,6-trifluorobenzyl)-1,4,5,6,7,11-hexahydro-3H-2,7-methanopyrido[1,2-a][1,4]diazonine-10-carboxamide] | – | – | 5.4 nM | > 43300 nM | 3.86 nM | 1.6 nM
9 | O=C(NCc1ccc(F)cc1F)c1cn2c(c(O)c1=O)C(=O)N1CCCOC[C@H]2C1 [Example 1-2, (R)-N-(2,4-difluorobenzyl)-13-hydroxy-1,12-dioxo-1,4,5,7,8,12-hexahydro-3H-2,8-methanopyrido[1,2-d][1,4,7]oxadiazecine-11-carboxamide] | – | – | 5.7 nM | 20700 nM | 13.9 nM | 1.37 nM
10 | C[C@@H]1N2C[C@H](CCC1(F)F)n1cc(C(=O)NCc3c(F)cc(F)cc3F)c(=O)c(O)c1C2=O [Example 154-2, (3S,7S)-4,4-difluoro-12-hydroxy-3-methyl-1,11-dioxo-N-(2,4,6-trifluorobenzyl)-1,4,5,6,7,11-hexahydro-3H-2,7-methanopyrido[1,2-a][1,4]diazonine-10-carboxamide] | – | – | 1.94 nM | 15200 nM | 7.14 nM | 0.306 nM
11 | O=C(NCc1ccc(F)cc1F)c1cn2c(c(O)c1=O)C(=O)N1Cc3ccccc3C[C@H]2C1 [Example 71, (6S)—N-(2,4-difluorobenzyl)-1-hydroxy-2,14-dioxo-2,7,12,14-tetrahydro-6H-6,13-methanobenzo[f]pyrido[1,2-a][1,4]diazonine-3-carboxamide] | – | – | 2.14 nM | 15000 nM | 1.66 nM | 0.302 nM
12 | O=C(NCc1ccc(F)cc1F)c1cn2c(c(O)c1=O)C(=O)N1CCCC(F)(F)[C@H]2C1 [Example 16-2, (7R)—N-(2,4-difluorobenzyl)-6,6-difluoro-12-hydroxy-1,11-dioxo-1,4,5,6,7,11-hexahydro-3H-2,7-methanopyrido[1,2-a][1,4]diazonine-10-carboxamide] | – | – | 5.3 nM | 36200 nM | 82.5 nM | 0.85 nM
13 | C[C@@]12CN(CCc3cc(F)c(F)cc31)C(=O)c1c(O)c(=O)c(C(=O)NCc3c(F)cc(F)cc3F)cn12 (single isomer, unassigned) [Example 120-1] | – | – | 3.54 nM | 8990 nM | 4.96 nM | 0.371 nM
14 | O=C(NCc1c(F)cc(F)cc1F)c1cn2c(c(O)c1=O)C(=O)N1CCc3ccc(F)cc3[C@H]2C1 [Example 147, (13S)-11-fluoro-4-hydroxy-3,5-dioxo-N-(2,4,6-trifluorobenzyl)-3,5,8,13-tetrahydro-7H-6,13-methanobenzo[g]pyrido[1,2-a][1,4]diazonine-2-carboxamide] | – | – | 2.14 nM | 6910 nM | 3.64 nM | 0.375 nM
15 | O=C(NCc1c(F)cc(F)cc1F)c1cn2c(c(O)c1=O)C(=O)N1C[C@@H]2CSc2ccccc21 [Example 94, (6R)-1-hydroxy-2,14-dioxo-N-(2,4,6-trifluorobenzyl)-2,6,7,14-tetrahydro-6,13-methanobenzo[b]pyrido[2,1-f][1,4,7]thiadiazonine-3-carboxamide] | – | – | 1.15 nM | 13700 nM | 1.73 nM | 0.411 nM
16 | O=C(NCc1ccc(F)cc1F)c1cn2c(c(O)c1=O)C(=O)N1CCCC[C@@]2(CF)C1 [Example 162-1, (7S)—N-(2,4-difluorobenzyl)-7-(fluoromethyl)-12-hydroxy-1,11-dioxo-1,4,5,6,7,11-hexahydro-3H-2,7-methanopyrido[1,2-a][1,4]diazonine-10-carboxamide] | – | – | 1.14 nM | 16200 nM | 11.9 nM | 0.067 nM
17 | C[C@H]1CCC[C@H]2CN1C(=O)c1c(O)c(=O)c(C(=O)NCc3ccc(F)cc3F)cn12 [Example 52-4, (3S, 7S)—N-(2,4-difluorobenzyl)-12-hydroxy-3-methyl-1,11-dioxo-1,4,5,6,7,11-hexahydro-3H-2,7-methanopyrido[1,2-a][1,4]diazonine-10-carboxamide] | – | – | 1.33 nM | 10300 nM | 7.54 nM | 0.218 nM
18 | C[C@H]1C[C@H]2CN(C(=O)c3c(O)c(=O)c(C(=O)NCc4c(F)cc(F)cc4F)cn32)[C@@H](C)C1 [Example 142-2, (3S,5R,7S)-12-hydroxy-3,5-dimethyl-1,11-dioxo-N-(2,4,6-trifluorobenzyl)-1,4,5,6,7,11-hexahydro-3H-2,7-methanopyrido[1,2-a][1,4]diazonine-10-carboxamide] | – | – | 1.87 nM | 13600 nM | 2.81 nM | 0.363 nM
19 | O=C(NCc1c(F)cc(F)cc1F)c1cn2c(c(O)c1=O)C(=O)N1C[C@H]2CCc2cc(Cl)ccc21 [Example 48-2, (12R)-2-chloro-7-hydroxy-6,8-dioxo-N-(2,4,6-trifluorobenzyl)-6,8,13,14-tetrahydro-12H-5,12-methanobenzo[e]pyrido[1,2-a][1,4]diazonine-9-carboxamide] | – | – | 2.38 nM | 17600 nM | 1.52 nM | 0.358 nM
20 | O=C(NCc1c(F)cc(F)cc1F)c1cn2c(c(O)c1=O)C(=O)N1C[C@@H](O)CC[C@H]2C1 (single isomer, unassigned) [Example 79-1] | – | – | 58.5 nM | > 50000 nM | 23.5 nM | 19.5 nM
21 | O=C(NCc1c(F)cc(F)cc1F)c1cn2c(c(O)c1=O)C(=O)N1CCc3ccc(Br)cc3[C@@H]2C1 (single isomer, unassigned) [Example 122-2] | – | – | 14.4 nM | 4770 nM | 298 nM | 3.77 nM
22 | C[C@@]1(F)CCCN2C[C@@H]1n1cc(C(=O)NCc3c(F)cc(F)cc3F)c(=O)c(O)c1C2=O [Example 61-2, (6R, 7S)-6-fluoro-12-hydroxy-6-methyl-1,11-dioxo-N-(2,4,6-trifluorobenzyl)-1,4,5,6,7,11-hexahydro-3H-2,7-methanopyrido[1,2-a][1,4]diazonine-10-carboxamide] | – | – | 2.51 nM | 16900 nM | 13.8 nM | 0.142 nM
